For nine compounds, DC50 and Dmax results are on record in patent publication US12091426B2, “Bifunctional degraders of hematopoietic progenitor kinase and therapeutic uses thereof” (Nurix Therapeutics, Inc., priority 2021, dated 2024).

In this assay the target is T1, HPK1 (Homo sapiens, UniProt Q92918).
T1 construct: A HiBiT tag was introduced by CRISPR on the N terminus of HPK1 in Jurkat cells; host or cells: Jurkat cells (ATCC TIB-152), monoclonal line with CRISPR knock-in of HiBiT at the endogenous HPK1 locus
T1 sequence (Q92918 whole entry): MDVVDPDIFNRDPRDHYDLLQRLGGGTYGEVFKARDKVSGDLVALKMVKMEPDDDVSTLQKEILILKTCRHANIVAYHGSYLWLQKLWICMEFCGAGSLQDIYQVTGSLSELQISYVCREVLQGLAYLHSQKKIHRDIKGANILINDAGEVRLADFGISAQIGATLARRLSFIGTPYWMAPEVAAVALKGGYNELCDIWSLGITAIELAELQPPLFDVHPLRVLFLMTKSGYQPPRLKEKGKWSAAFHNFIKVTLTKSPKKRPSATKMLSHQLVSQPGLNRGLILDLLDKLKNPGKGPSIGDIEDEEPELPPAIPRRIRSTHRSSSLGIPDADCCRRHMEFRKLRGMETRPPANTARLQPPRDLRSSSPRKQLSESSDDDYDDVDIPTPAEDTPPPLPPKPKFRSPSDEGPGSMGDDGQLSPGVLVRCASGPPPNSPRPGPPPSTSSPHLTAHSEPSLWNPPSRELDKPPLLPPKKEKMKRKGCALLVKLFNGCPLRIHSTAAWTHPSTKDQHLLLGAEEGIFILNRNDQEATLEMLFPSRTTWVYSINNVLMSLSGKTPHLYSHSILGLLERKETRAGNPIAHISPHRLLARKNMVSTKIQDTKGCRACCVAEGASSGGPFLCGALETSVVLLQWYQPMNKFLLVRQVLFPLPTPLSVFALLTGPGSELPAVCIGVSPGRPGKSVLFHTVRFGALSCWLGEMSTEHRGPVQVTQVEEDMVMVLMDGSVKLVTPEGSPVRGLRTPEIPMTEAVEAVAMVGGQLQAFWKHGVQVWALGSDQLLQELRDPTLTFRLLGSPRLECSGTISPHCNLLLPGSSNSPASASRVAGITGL
The assay can be described thus: HPK1 Cellular HiBit Degradation Assay. Type of assay: cell-based. Conditions: HiBiT HPK1 Jurkat cells, 24 hrs; for DC50: concentration at which 50% of HPK1 was remaining, read-out: DC50 Category; for Dmax: Jurkat, maximum degradation vs DMSO vehicle control, read-out: Dmax Category. An outline of the steps: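 Degraders are dosed in an 11-point series (10 uM to 0.1 nM final) onto Jurkat cells carrying an N-terminal HiBiT tag on endogenous HPK1. After 24 hrs at 37° C, lysis-based HiBiT luminescence quantifies remaining HPK1 relative to vehicle, and curve fitting gives DC50 and Dmax.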
Background: The HiBiT peptide binds its large partner to form an active luciferase.

Some results are limits rather than exact numbers.

As to `CC(C)n1cnc2cc(-c3ccc4c(c3)N([C@H]3C[C@@H](N5CCCCC5)C3)C(=O)C43CCN(C(=O)C4(C)CCN(C(=O)CN5CCN(c6ccc(C7CCC(=O)NC7=O)cn6)CC5)CC4)CC3)nc(NC3CC3)c21` (mixture of isomers) [Example 123, (3RS)-3-[6-(4-{2-[4-({6-[4-(cyclopropylamino)-3-(propan-2-yl)-3H-imidazo[4,5-c]pyridin-6-yl]-2-oxo-1-[(1S,3S)-3-(piperidin-1-yl)cyclobutyl]-1,2-dihydrospiro[indole-3,4′-piperidin]-1′-yl}carbonyl)-4-methylpiperidin-1-yl]-2-oxoethyl}piperazin-1-yl)pyridin-3-yl]piperidine-2,6-dione], the DC50 (commonly the midpoint of the concentration-degradation curve) is < 100 nM and the Dmax (usually the largest share of the target that was removed) lay in the range of 50 to 70%.
As to `CC(C)n1cnc2cc(-c3ccc4c(c3)N([C@H]3C[C@@H](N5CCCCC5)C3)C(=O)C43CCN(C(=O)C4CCN(C(=O)[C@H]5CC[C@H](Oc6ccc(C7CCC(=O)NC7=O)cc6)CC5)CC4)CC3)nc(Nc3ccccc3F)c21` (mixture of isomers) [Example 60, (3RS)-3-(4-{[(1R,4R)-4-{4-[(6-{4-[(2-fluorophenyl)amino]-3-(propan-2-yl)-3H-imidazo[4,5-c]pyridin-6-yl}-2-oxo-1-[(1S,3S)-3-(piperidin-1-yl)cyclobutyl]-1,2-dihydrospiro[indole-3,4′-piperidin]-1′-yl)carbonyl]piperidine-1-carbonyl}cyclohexyl]oxy}phenyl)piperidine-2,6-dione], the DC50 was < 100 nM and the maximal degradation (Dmax) is 70 to 85%.
With `CC(C)n1cnc2cc(-c3ccc4c(c3)N([C@H]3C[C@@H](N5CCCCC5)C3)C(=O)C43CCN(C(=O)C4CCN(C(=O)[C@H]5CC[C@H](C(=O)N6CCCc7cc(C8CCC(=O)NC8=O)ccc76)CC5)CC4)CC3)nc(Nc3ccccc3F)c21` (mixture of isomers) [Example 51, (3RS)-3-{1-[(1R,4R)-4-{4-[(6-{4-[(2-fluorophenyl)amino]-3-(propan-2-yl)-3H-imidazo[4,5-c]pyridin-6-yl}-2-oxo-1-[(1S,3S)-3-(piperidin-1-yl)cyclobutyl]-1,2-dihydrospiro[indole-3,4′-piperidin]-1′-yl)carbonyl]piperidine-1-carbonyl}cyclohexanecarbonyl]-1,2,3,4-tetrahydroquinolin-6-yl}piperidine-2,6-dione], the DC50 is < 100 nM and the Dmax lay in the range of 70 to 85%.
Regarding `CC(C)n1cnc2cc(-c3ccc4c(c3)N([C@H]3C[C@@H](N5CCCCC5)C3)C(=O)C43CCN(C(=O)C4CCC5(CCC5)N(C(=O)C5CCN(c6ccc(C7CCC(=O)NC7=O)cn6)CC5)C4)CC3)nc(NC3CC3)c21` (mixture of isomers) [Example 290, (3RS)-3-(6-{4-[7-({6-[4-(cyclopropylamino)-3-(propan-2-yl)-3H-imidazo[4,5-c]pyridin-6-yl]-2-oxo-1-[(1S,3S)-3-(piperidin-1-yl)cyclobutyl]-1,2-dihydrospiro[indole-3,4′-piperidin]-1′-yl}carbonyl)-5-azaspiro[3.5]nonane-5-carbonyl]piperidin-1-yl}pyridin-3-yl)piperidine-2,6-dione], the DC50 was in the range of 100 to 500 nM and the Dmax was in the range of 70 to 85%.
For `CC(C)n1cnc2cc(-c3ccc4c(c3)N([C@H]3C[C@@H](N5CCCCC5)C3)C(=O)C43CCN(C(=O)[C@@H]4C[C@@H]5C[C@H]4CN5C(=O)C4CCN(c5ccc(C6CCC(=O)NC6=O)cn5)CC4)CC3)nc(NC3CC3)c21` (mixture of isomers) [Example 265, (3RS)-3-(6-{4-[(S,4R,5R)-5-({6-[4-(cyclopropylamino)-3-(propan-2-yl)-3H-imidazo[4,5-c]pyridin-6-yl]-2-oxo-1-[(1S,3S)-3-(piperidin-1-yl)cyclobutyl]-1,2-dihydrospiro[indole-3,4′-piperidin]-1′-yl}carbonyl)-2-azabicyclo[2.2.1]heptane-2-carbonyl]piperidin-1-yl}pyridin-3-yl)piperidine-2,6-dione], the half-maximal degradation concentration (DC50) was < 100 nM and the Dmax lay in the range of 70 to 85%.
Taken in the same sequence, the figures for `CC(C)n1cnc2cc(-c3ccc4c(c3)N([C@H]3C[C@@H](N5CCCCC5)C3)C(=O)C43CCN(C(=O)C4(C)CCN(C(=O)[C@H]5CC[C@H](Oc6ncc(C7CCC(=O)NC7=O)cn6)CC5)CC4)CC3)nc(NC3CC3)c21` (mixture of isomers) [Example 194, (3RS)-3-(2-{[(1R,4R)-4-[4-({6-[4-(cyclopropylamino)-3-(propan-2-yl)-3H-imidazo[4,5-c]pyridin-6-yl]-2-oxo-1-[(1S,3S)-3-(piperidin-1-yl)cyclobutyl]-1,2-dihydrospiro[indole-3,4′-piperidin]-1′-yl}carbonyl)-4-methylpiperidine-1-carbonyl]cyclohexyl]oxy}pyrimidin-5-yl)piperidine-2,6-dione] were 100 to 500 nM and 70 to 85%.
For the compound `CC(C)n1cnc2cc(-c3ccc4c(c3)N([C@H]3C[C@@H](N5CCCCC5)C3)C(=O)C43CCN(C(=O)C4(C5CCN(C(=O)C6CCN(c7ccc(C8CCC(=O)NC8=O)cn7)CC6)CC5)CCC4)CC3)nc(NC3CC3)c21` (mixture of isomers) [Example 300, (3RS)-3-[6-(4-{4-[1-({6-[4-(cyclopropylamino)-3-(propan-2-yl)-3H-imidazo[4,5-c]pyridin-6-yl]-2-oxo-1-[(1S,3S)-3-(piperidin-1-yl)cyclobutyl]-1,2-dihydrospiro[indole-3,4′-piperidin]-1′-yl}carbonyl)cyclobutyl]piperidine-1-carbonyl}piperidin-1-yl)pyridin-3-yl]piperidine-2,6-dione], the DC50 is < 100 nM and the Dmax is 70 to 85%.
Taken in the same sequence, the figures for `CC(C)n1cnc2cc(-c3ccc4c(c3)N([C@H]3C[C@@H](N5CCCCC5)C3)C(=O)C43CCN(C(=O)C4CCN(C(=O)CC5CCN(c6ccc(C7CCC(=O)NC7=O)cn6)CC5)CC4)CC3)nc(Nc3ccccc3F)c21` (stereo partly drawn) [Example 92, 3-(6-(4-(2-(4-(6-(4-((2-fluorophenyl)amino)-3-isopropyl-3H-imidazo[4,5-c]pyridin-6-yl)-2-oxo-1-((1S,3S)-3-(piperidin-1-yl)cyclobutyl)spiro[indoline-3,4′-piperidine]-1′-carbonyl)piperidin-1-yl)-2-oxoethyl)piperidin-1-yl)pyridin-3-yl)piperidine-2,6-dione] were < 100 nM and 70 to 85%.
With `CC1CN(C(=O)C2CCN(c3ccc(C4CCC(=O)NC4=O)cn3)CC2)CCC1C(=O)N1CCC2(CC1)C(=O)N([C@H]1C[C@@H](N3CCCCC3)C1)c1cc(-c3cc4ncn(C(C)C)c4c(NC4CC4)n3)ccc12` (mixture of isomers) [Example 253, (3RS)-3-(6-{4-[4-({6-[4-(cyclopropylamino)-3-(propan-2-yl)-3H-imidazo[4,5-c]pyridin-6-yl]-2-oxo-1-[(1S,3S)-3-(piperidin-1-yl)cyclobutyl]-1,2-dihydrospiro[indole-3,4′-piperidin]-1′-yl}carbonyl)-3-methylpiperidine-1-carbonyl]piperidin-1-yl}pyridin-3-yl)piperidine-2,6-dione], the DC50 was < 100 nM and the maximal degradation (Dmax) lay in the range of 70 to 85%.
